Results from patent publication US9115117B2, “Substituted piperidine compounds and their use as orexin receptor modulators” (JANSSEN PHARMACEUTICA NV, priority 2013, dated 2015).
Where a name gives a salt, the structure may show the parent alone. Read-outs that look alike come from different tables or passages of the source.

Legend:
[1] = target: human orexin 1 receptor (Homo sapiens, UniProt O43613); test: Human orexin 1 receptor radioligand binding; details: CHO cells stably expressing human orexin 1 receptor; apparent Ki; read-out: hOX1 Ki
Protocol: The in vitro affinity of the compounds of the invention for the rat/human orexin 1 and human orexin 2 receptors was determined by competitive radioligand binding using [^3H](1-(5-(2-fluoro-phenyl)-2-methyl-thiazol-4-yl)-1-((S)-2-(5-phenyl-(1,3,4)oxadiazol-2-ylmethyl)-pyrrolidin-1-yl)-methanone)(Langmead et al., 2004) and [^3H]EMPA (n-ethyl-2[96-methoxy-pyridin-3-yl)-(toluene-2-sulfonyl)-amino]-N-pyridin-3-ylmethyl acetamide), respectively (Langmead et al., 2004, British Journal of Pharmacology 141:340-346; Malherbe et al., 2004, British Journal of Pharmacology 156:1326-41).
Human Embryonic Kidney 293 cells (HEK293) stably expressing rat orexin 1 receptor (Genebank accession number NM_001525) or Chinese ovary cells (CHO) stably expressing human orexin 1 receptor (Genebank accession number NM_001526) were grown to confluency in DMEM (Hyclone, cat #SH30022), 10% FBS, 1× Pen/Strep, 1× sodium pyruvate, 10 mM HEPES, 600 µg/mL G418 and DMEM/F12 (Gibco, Cat #11039), 10% FBS, 1× Pen/Strep, 600 µg/mL G418 media, respectively on 150 cm^2 tissue culture plates, washed with 5 mM EDTA in PBS (HyClone Dulbecco's Phoshpate Buffered Saline 1× with Calcium and Magnesium, Cat #SH30264.01, hereafter referred to simply as PBS) and scraped into 50 ml tubes. After centrifugation (2K×G, 5 min at 4° C.), the supernatant was aspirated and the pellets frozen and stored at −80° C. Cells were resuspended in PBS in the presence of 1 tablet of protease inhibitor cocktail (Roche, Cat. #11836145001) per 50 mL. Each cell pellet from a 15 cm plate was resuspended in 10 mL, stored on ice, and homogenized for 45 sec prior to addition to the reactions. Competition binding experiments in 96 well polypropylene plates were performed using [^3H]-(1-(5-(2-fluoro-phenyl)-2-methyl-thiazol-4-yl)-1-((S)-2-(5-phenyl-(1,3,4)oxadiazol-2-ylmethyl)-pyrrolidin-1-yl)-methanone) (Moraveck Corporation, specific activity=35.3 Ci/mmol), diluted to a 10 nM concentration in PBS (4 nM final). […] The final concentration of DMSO in the reactions is equal to or less than 0.1%. Total and nonspecific binding was determined in the absence and presence of 10 μM almorexant. The total volume of each reaction is 200 μL (20 μL of diluted compounds, 80 μL of [3H]-(1-(5-(2-fluoro-phenyl)-2-methyl-thiazol-4-yl)-1-((S)-2-(5-phenyl-(1,3,4)oxadiazol-2-ylmethyl)-pyrrolidin-1-yl)-methanone) diluted in PBS and 100 μL of the cell suspension). Reactions were run for 60 min at room temperature and terminated by filtration through GF/C filter plates (PerkinElmer, Cat. #6005174) presoaked in 0.3% polyethylenimine using the cell harvester (PerkinElmer Filtermate). The plates were washed 3 times by aspirating 30 ml PBS through the plates. Plates were dried in 55° C. oven for 60 min, scintillation fluid was added, and the radioactivity was counted on a Topcount (Packard).

[2] = target: human orexin 2 receptor (Homo sapiens (Human), UniProt O43614); test: Human orexin 2 receptor radioligand binding ([3H]-EMPA)
Protocol: After centrifugation (2K×G, 5 min at 4° C.), the supernatant was aspirated and the pellets frozen and stored at −80° C. […] Each cell pellet from a 15 cm plate was resuspended in 10 mL, stored on ice, and homogenized for 45 sec just prior to addition to the reactions. Competition binding experiments in 96 well polypropylene plates were performed using [^3H]-EMPA (Moraveck Corporation, specific activity=29.6 Ci/mmol), diluted to a 5 nM concentration in PBS (2 nM final concentration). […] The final concentration of DMSO in the reactions is equal to or less than 0.1%. Total and nonspecific binding was determined in the absence and presence of […]. The total volume of each reaction is 200 μL (20 μL of diluted compounds, 80 μL of [^3H]-EMPA diluted in PBS and 100 μL of the cell suspension).
The plates were washed 3 times by aspirating 30 ml PBS through the plates. Plates were dried in 55° C. oven for 60 min, scintillation fluid was added, and the radioactivity was counted on a Topcount (Packard).

[3] = target: rat orexin 1 receptor (Rattus norvegicus, UniProt P56718); test: Rat orexin 1 receptor radioligand binding; details: HEK293 cells stably expressing rat orexin 1 receptor; apparent Ki; read-out: rOX1 Ki
Protocol: After centrifugation (2K×G, 5 min at 4° C.), the supernatant was aspirated and the pellets frozen and stored at −80° C. […] Each cell pellet from a 15 cm plate was resuspended in 10 mL, stored on ice, and homogenized for 45 sec prior to addition to the reactions. Competition binding experiments in 96 well polypropylene plates were performed using [^3H]-(1-(5-(2-fluoro-phenyl)-2-methyl-thiazol-4-yl)-1-((S)-2-(5-phenyl-(1,3,4)oxadiazol-2-ylmethyl)-pyrrolidin-1-yl)-methanone) (Moraveck Corporation, specific activity=35.3 Ci/mmol), diluted to a 10 nM concentration in PBS (4 nM final). […] The final concentration of DMSO in the reactions is equal to or less than 0.1%. Total and nonspecific binding was determined in the absence and presence of 10 μM almorexant. The total volume of each reaction is 200 μL (20 μL of diluted compounds, 80 μL of [3H]-(1-(5-(2-fluoro-phenyl)-2-methyl-thiazol-4-yl)-1-((S)-2-(5-phenyl-(1,3,4)oxadiazol-2-ylmethyl)-pyrrolidin-1-yl)-methanone) diluted in PBS and 100 μL of the cell suspension). […] The plates were washed 3 times by aspirating 30 ml PBS through the plates. Plates were dried in 55° C. oven for 60 min, scintillation fluid was added, and the radioactivity was counted on a Topcount (Packard).

[4] = HEK293 stably expressing human orexin 2 receptor, [3H]-EMPA, apparent Ki, read-out: hOX2 Ki

human orexin 2 receptor, sequence (O43614 whole entry): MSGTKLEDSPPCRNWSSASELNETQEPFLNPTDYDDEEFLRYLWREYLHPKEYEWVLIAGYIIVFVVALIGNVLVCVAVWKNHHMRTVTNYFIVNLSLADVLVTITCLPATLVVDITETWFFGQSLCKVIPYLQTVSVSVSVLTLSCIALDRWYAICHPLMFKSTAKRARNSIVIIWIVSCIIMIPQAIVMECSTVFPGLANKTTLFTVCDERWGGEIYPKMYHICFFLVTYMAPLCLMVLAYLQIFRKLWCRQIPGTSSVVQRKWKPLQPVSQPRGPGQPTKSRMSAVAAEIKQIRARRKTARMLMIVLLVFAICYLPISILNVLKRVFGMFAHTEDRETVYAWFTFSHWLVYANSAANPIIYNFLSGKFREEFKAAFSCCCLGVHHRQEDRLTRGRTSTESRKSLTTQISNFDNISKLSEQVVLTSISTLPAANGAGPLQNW

Row | Compound | Ki [1] [µM] | Ki [2, 4] [µM] | Ki [3] [µM] | Ki [2] [µM]
1 | C[C@H]1[C@H](Nc2ccc(C(F)(F)F)nn2)CCCN1C(=O)c1ccccc1-n1nccn1 (racemic) [Example 33, (±)-trans-(2-(2H-1,2,3-triazol-2-yl)phenyl)(2-methyl-3-((6-(trifluoromethyl)pyridazin-3-yl)amino)piperidin-1-yl)methanone hydrochloride] | 0.16 | 4.8 | 0.199 | 
2 | COc1ccc(C(=O)N2CCC[C@@H](Nc3ccc(C(F)(F)F)cn3)[C@@H]2C)c(-n2nccn2)c1 [Example 97, (4-methoxy-2-(2H-1,2,3-triazol-2-yl)phenyl)((2S,3R)-2-methyl-3-((5-(trifluoromethyl)pyridin-2-yl)amino)piperidin-1-yl)methanone] | 0.032 | 6.1 | 0.044 | 
3 | Cc1cnc(C(=O)N2CCC[C@@H](Nc3ccc(C(F)(F)F)cn3)[C@@H]2C)c(-n2nccn2)c1 [Example 26, ((2S,3R)-2-methyl-3-((5-(trifluoromethyl)pyridin-2-yl)amino)piperidin-1-yl)(5-methyl-3-(2H-1,2,3-triazol-2-yl)pyridin-2-yl)methanone] | 0.014 | 2.04 | 0.011 | 
4 | Cc1ccc(-c2ncco2)c(C(=O)N2CCC[C@@H](Nc3ccc(C(F)(F)F)cn3)[C@@H]2C)n1 [Example 25, ((2S,3R)-2-methyl-3-((5-(trifluoromethyl)pyridin-2-yl)amino)piperidin-1-yl)(6-methyl-3-(oxazol-2-yl)pyridin-2-yl)methanone hydrochloride] | 0.019 | 0.19 | 0.011 | 
5 | Cc1ccc(C(=O)N2CCC[C@@H](Nc3ncc(C(F)(F)F)cn3)[C@@H]2C)c(-n2nccn2)n1 [Example 69, (6-methyl-2-(2H-1,2,3-triazol-2-yl)pyridin-3-yl)((2S,3R)-2-methyl-3-((5-(trifluoromethyl)pyrimidin-2-yl)amino)piperidin-1-yl)methanone] | 0.112 | > 10 | 0.07 | 
6 | Cc1ccc(C(=O)N2CCC[C@@H](Nc3cnc(C(F)(F)F)cn3)[C@@H]2C)c(-n2nccn2)c1 [Example 79, (4-methyl-2-(2H-1,2,3-triazol-2-yl)phenyl)((2S,3R)-2-methyl-3-((5-(trifluoromethyl)pyrazin-2-yl)amino)piperidin-1-yl)methanone] | 0.007 | 1.3 | 0.008 | 
7 | Cc1ccc(C(=O)N2CCC[C@@H](Nc3ncc(C(F)(F)F)cn3)[C@@H]2C)c(-n2ccnn2)n1 [Example 70, (6-methyl-2-(1H-1,2,3-triazol-1-yl)pyridin-3-yl)((2S,3R)-2-methyl-3-((5-(trifluoromethyl)pyrimidin-2-yl)amino)piperidin-1-yl)methanone] | 0.165 | 7.5 | 0.17 | 
8 | Cc1cnc(C(=O)N2CCC[C@@H](Nc3ccc(Cl)cn3)[C@@H]2C)c(-c2ncco2)c1 [Example 77, ((2S,3R)-3-((5-chloropyridin-2-yl)amino)-2-methylpiperidin-1-yl)(5-methyl-3-(oxazol-2-yl)pyridin-2-yl)methanone] | 0.055 | 4.02 | 0.036 | 
9 | COc1ccc(C(=O)N2CCC[C@@H](Nc3ncc(C(F)(F)F)cn3)[C@@H]2C)c(-n2nccn2)c1 [Example 95, (4-methoxy-2-(2H-1,2,3-triazol-2-yl)phenyl)((2S,3R)-2-methyl-3-((5-(trifluoromethyl)pyrimidin-2-yl)amino)piperidin-1-yl)methanone] | 0.103 | > 10 | 0.081 | 
10 | Cc1ccc(C(=O)N2CCC[C@@H](Nc3cnc(C(F)(F)F)cn3)[C@@H]2C)c(-n2nccn2)n1 [Example 74, (6-methyl-2-(2H-1,2,3-triazol-2-yl)pyridin-3-yl)((2S,3R)-2-methyl-3-((5-(trifluoromethyl)pyrazin-2-yl)amino)piperidin-1-yl)methanone] | 0.052 |  | 0.04 | > 10

Further lines, with some results ahead:

Row | Ki [1] [µM] | Ki [2, 4] [µM] | Ki [3] [µM] | Compound | Ki [2] [µM]
11 | 0.026 | 0.281 | 0.028 | C[C@H]1[C@H](Nc2nc3cc(Cl)ccc3o2)CCCN1C(=O)c1ccccc1-n1nccn1 (racemic) [Example 45, (±)-trans-(2-(2H-1,2,3-triazol-2-yl)phenyl)(3-((5-chlorobenzo[d]oxazol-2-yl)amino)-2-methylpiperidin-1-yl)methanone] | 
12 | 0.021 | 1.89 | 0.007 | Cc1cnc(C(=O)N2CCC[C@@H](Nc3nc4ccccc4o3)[C@@H]2C)c(-n2nccn2)c1 [Example 73, ((2S,3R)-3-(benzo[d]oxazol-2-ylamino)-2-methylpiperidin-1-yl)(5-methyl-3-(2H-1,2,3-triazol-2-yl)pyridin-2-yl)methanone] | 
13 | 0.01 | 0.21 | 0.008 | C[C@H]1[C@H](Nc2cnc(C(F)(F)F)cn2)CCCN1C(=O)c1ccccc1-n1nccn1 [Example 85, (2-(2H-1,2,3-triazol-2-yl)phenyl)((2S,3R)-2-methyl-3-((5-(trifluoromethyl)pyrazin-2-yl)amino)piperidin-1-yl)methanone] | 
14 | 0.015 | 1.4 | 0.023 | Cc1ccc(C(=O)N2CCC[C@@H](Nc3ccc(Cl)cn3)[C@@H]2C)c(-n2nccn2)c1 [Example 99, ((2S,3R)-3-((5-chloropyridin-2-yl)amino)-2-methylpiperidin-1-yl)(4-methyl-2-(2H-1,2,3-triazol-2-yl)phenyl)methanone] | 
15 | 0.249 | > 10 | 0.213 | Cc1cnc(C(=O)N2CCC[C@@H](Nc3cnc(Cl)cn3)[C@@H]2C)c(-c2ncco2)c1 [Example 86, ((2S,3R)-3-((5-chloropyrazin-2-yl)amino)-2-methylpiperidin-1-yl)(5-methyl-3-(oxazol-2-yl)pyridin-2-yl)methanone] | 
16 | 0.028 | 0.173 | 0.023 | Cc1ccc(-c2ncccn2)c(C(=O)N2CCC[C@@H](Nc3cnc(C(F)(F)F)cn3)[C@@H]2C)n1 [Example 84, ((2S,3R)-2-methyl-3-((5-(trifluoromethyl)pyrazin-2-yl)amino)piperidin-1-yl)(6-methyl-3-(pyrimidin-2-yl)pyridin-2-yl)methanone] | 
